Values quoted from earlier work as cited in patent US8551985B2, “Carbinol derivatives having heterocyclic linker” (Kowa Company, Ltd., priority 2009, dated 2013).

Target: T1, LXRβ (Homo sapiens, UniProt P55055)
T1 sequence (P55055 1-460): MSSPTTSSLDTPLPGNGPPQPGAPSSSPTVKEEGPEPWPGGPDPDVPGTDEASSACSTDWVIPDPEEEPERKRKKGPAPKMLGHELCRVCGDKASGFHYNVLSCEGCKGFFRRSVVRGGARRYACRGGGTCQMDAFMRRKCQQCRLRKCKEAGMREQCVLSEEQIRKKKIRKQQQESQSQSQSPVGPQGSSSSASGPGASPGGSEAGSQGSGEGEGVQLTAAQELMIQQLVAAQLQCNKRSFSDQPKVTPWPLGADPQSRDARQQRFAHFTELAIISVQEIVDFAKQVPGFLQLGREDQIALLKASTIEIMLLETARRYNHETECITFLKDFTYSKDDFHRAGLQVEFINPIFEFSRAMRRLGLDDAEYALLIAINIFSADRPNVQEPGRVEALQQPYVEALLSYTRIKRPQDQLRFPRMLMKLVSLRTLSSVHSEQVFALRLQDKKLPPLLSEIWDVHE

O=C(O)Cc1ccc(COc2cccc(-c3c(Cc4ccccc4)cnc4c(C(F)(F)F)cccc34)c2)cc1 [WAY-254011]
LXRβ-selective binding affinity (α/β ratio): 1 to 5
